The values that follow are results of earlier work, collected in patent publication US9757374B2, “Aripiprazole compositions and methods for its transdermal delivery” (Aequus Pharmaceuticals Inc., priority 2010, dated 2017).

Each structure is given as a SMILES string.

Turning to `O=C1CCc2ccc(OCCCCN3CCN(c4cccc(Cl)c4Cl)CC3)cc2N1` [ARPZ, Aripiprazole], the solubility in water entry was “practically insoluble”.
